Data set [1] addresses T1, human OCT2 (Homo sapiens, UniProt O15244).
T1 sequence (O15244 1-555): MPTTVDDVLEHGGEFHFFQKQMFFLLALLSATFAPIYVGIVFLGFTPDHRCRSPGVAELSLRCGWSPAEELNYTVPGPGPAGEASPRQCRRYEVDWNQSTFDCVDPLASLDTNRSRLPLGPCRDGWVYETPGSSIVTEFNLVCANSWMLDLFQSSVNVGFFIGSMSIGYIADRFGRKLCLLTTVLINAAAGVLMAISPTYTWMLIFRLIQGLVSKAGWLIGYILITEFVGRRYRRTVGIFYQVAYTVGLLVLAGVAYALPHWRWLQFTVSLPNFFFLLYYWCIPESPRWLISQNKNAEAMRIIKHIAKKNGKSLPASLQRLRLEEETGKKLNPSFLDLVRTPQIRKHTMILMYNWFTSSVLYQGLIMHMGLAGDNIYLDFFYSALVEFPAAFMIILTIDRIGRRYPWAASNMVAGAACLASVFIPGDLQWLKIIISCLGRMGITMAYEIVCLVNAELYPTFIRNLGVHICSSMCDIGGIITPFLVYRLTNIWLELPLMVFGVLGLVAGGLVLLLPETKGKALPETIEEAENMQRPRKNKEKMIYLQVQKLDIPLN
Nature of the data set: hOCT2 substrate. It counts as in vitro ADME. The note with it: 1 μM PFAS screen.

Data set [2] concerns the target T2, human OAT3 (Homo sapiens, UniProt Q8TCC7).
T2 sequence (Q8TCC7 1-542): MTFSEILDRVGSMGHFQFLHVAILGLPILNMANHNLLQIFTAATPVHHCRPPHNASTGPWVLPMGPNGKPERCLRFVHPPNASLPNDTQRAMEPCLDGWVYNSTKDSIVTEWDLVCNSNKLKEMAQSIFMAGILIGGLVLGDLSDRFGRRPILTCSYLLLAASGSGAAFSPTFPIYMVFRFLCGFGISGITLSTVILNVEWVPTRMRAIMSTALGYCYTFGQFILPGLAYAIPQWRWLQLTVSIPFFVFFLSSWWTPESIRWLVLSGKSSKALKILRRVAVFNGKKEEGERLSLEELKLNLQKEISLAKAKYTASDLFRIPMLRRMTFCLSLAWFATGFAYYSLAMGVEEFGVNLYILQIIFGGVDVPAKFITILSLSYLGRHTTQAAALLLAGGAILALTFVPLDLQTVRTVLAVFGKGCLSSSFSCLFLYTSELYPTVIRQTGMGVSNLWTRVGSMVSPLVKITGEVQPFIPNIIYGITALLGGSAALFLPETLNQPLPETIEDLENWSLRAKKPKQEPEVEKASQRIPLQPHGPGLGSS
Nature of the data set: OAT3 inhibition assay.

Data set [3] has as its target T3, human OAT1 (Homo sapiens, UniProt Q4U2R8).
T3 sequence (Q4U2R8 1-563): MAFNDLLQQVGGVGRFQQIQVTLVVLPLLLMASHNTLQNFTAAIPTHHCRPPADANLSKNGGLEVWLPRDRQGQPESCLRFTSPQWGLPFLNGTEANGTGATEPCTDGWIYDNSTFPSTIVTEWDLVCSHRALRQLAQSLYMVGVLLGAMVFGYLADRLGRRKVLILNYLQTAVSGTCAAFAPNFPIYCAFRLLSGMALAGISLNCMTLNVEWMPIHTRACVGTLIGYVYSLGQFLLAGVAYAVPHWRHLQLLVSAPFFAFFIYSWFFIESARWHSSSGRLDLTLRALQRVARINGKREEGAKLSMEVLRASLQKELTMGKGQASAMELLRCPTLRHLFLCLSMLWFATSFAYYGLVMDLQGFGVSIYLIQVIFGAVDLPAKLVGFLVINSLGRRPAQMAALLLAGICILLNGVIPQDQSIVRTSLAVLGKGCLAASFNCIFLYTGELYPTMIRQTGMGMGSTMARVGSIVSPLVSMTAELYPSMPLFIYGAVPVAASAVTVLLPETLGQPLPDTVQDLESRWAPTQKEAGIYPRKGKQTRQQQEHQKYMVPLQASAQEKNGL
Nature of the data set: OAT1 inhibition assay.

The target of data set [4] is T4, human OAT4 (Homo sapiens, UniProt Q9NSA0).
T4 sequence (Q9NSA0 1-550): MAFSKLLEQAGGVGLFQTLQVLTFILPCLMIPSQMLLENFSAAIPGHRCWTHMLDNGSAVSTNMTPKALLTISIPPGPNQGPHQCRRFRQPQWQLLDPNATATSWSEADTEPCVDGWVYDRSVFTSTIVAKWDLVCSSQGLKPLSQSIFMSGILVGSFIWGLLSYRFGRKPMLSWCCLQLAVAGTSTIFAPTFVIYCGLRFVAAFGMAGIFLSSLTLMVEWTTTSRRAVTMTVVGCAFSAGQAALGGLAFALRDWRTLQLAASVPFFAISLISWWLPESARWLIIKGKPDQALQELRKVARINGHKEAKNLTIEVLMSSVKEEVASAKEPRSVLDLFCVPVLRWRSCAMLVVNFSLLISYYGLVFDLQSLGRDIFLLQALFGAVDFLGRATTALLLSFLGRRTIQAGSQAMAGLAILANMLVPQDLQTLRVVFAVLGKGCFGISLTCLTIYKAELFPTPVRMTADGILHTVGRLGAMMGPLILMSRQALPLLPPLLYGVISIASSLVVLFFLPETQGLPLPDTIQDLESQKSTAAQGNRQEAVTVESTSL
Nature of the data set: hOAT4 substrate. It counts as in vitro ADME. Conditions: for Transporter Uptake Ratio OAT4: 1 μM PFAS, threshold ≥ 2-fold; for Effect of probenecid co-treatment on hOAT4-mediated uptake: probenecid 1 mM.

The conditions of data set [5]: PFHpA versus PFUDA; ref Zhang et al. (2013); cited from earlier work.
Data set [6] addresses T3, human OAT1. The data set is described as follows: hOAT1 substrate. Conditions: 1 μM PFAS screen.
Data set [7] concerns the target T2, human OAT3. Nature of the data set: hOAT3 substrate. Conditions: for hOAT3 uptake ratio, fold higher than mock transfected controls: 1 μM PFAS screen; for Transporter Uptake Ratio OAT3: 1 μM PFAS, threshold ≥ 2-fold; for hOAT3-mediated uptake, fold: follow-up test, without probenecid; for Effect of probenecid cotreatment on hOAT3-mediated uptake: probenecid 1 mM.

Data set [8] relates to MDCKII-LE cell monolayers. The data set is described as follows: Apparent permeability. The note with it: donor pH 7.4, receiver pH 7.4; 2 μM PFAS; 90 min; 0.4% BSA in receiver.
In data set [9] the target is T1, human OCT2. The data set is described as follows: OCT2 inhibition assay. It counts as cell-based.
A short description of data set [10]: Physicochemical parameters.
Data set [11] deals with MDCKII-LE cell monolayers. The note with it: MDCK.
A short description of data set [12]: in vitro. The note with it: dog, MDCK, pH 7.4.

Each structure is given as a SMILES string. Like-named read-outs stand apart in the source and are kept apart here.

For the compound `O=C(O)C(F)(F)C(F)(F)C(F)(F)C(F)(F)C(F)(F)C(F)(F)C(F)(F)C(F)(F)C(F)(F)C(F)(F)C(F)(F)F` [PFDoDA, perfluorododecanoic acid], in data set [1], the “hOCT2 uptake ratio, % higher than mock transfectant controls” value was ~ 10%. In addition, the “Some level of inhibition against hOAT3 mediated transport” value in data set [2] is reported as “the only exceptions”. For the same compound, the “Some level of inhibition against hOAT1 mediated transport” value in data set [3] is on record as “the only exceptions”.
Regarding `O=C(O)C(F)(F)C(F)(F)C(F)(F)C(F)(F)C(F)(F)C(F)(F)F` [PFHpA, perfluoroheptanoic acid], in data set [4], the “OAT4 substrate classification” value is recorded as “strong substrates”; the “Transporter Uptake Ratio OAT4” value was “+ (denoted with a “+” to denote a threshold of ≥ 2-fold has been met and considered a substrate for the transporter)”; the “Effect of probenecid co-treatment on hOAT4-mediated uptake” value is reported as “effectively inhibited”. For the same compound, the “hOAT4 uptake ratio, % above controls” value in [4] (1 μM PFAS screen) is given as ~ 20%. Also, in data set [5], the “human renal clearance rate, fold higher than PFUDA” value was ~ 10 fold. In addition, in data set [2], the concentration for half-maximal inhibition (IC50) (commonly the concentration at which inhibition is half-maximal) is 10.2 µM. Besides, in data set [3], the IC50 is 51.4 to 166 µM. In addition, the “hOAT1 uptake ratio, % higher than controls” value in data set [6] is 5–60%. Also, in data set [7], the “hOAT3 uptake ratio, fold higher than mock transfected controls” value was 2.5–12 fold; the “Transporter Uptake Ratio OAT3” value is “+ (denoted with a “+” to denote a threshold of ≥ 2-fold has been met and considered a substrate for the transporter)”; the “hOAT3-mediated uptake, fold” value was 2.5–15 fold; the “Effect of probenecid cotreatment on hOAT3-mediated uptake” value is “markedly inhibited”.
Regarding `O=C(O)C(F)(F)C(F)(F)C(F)(F)C(F)(F)C(F)(F)C(F)(F)C(F)(F)F` [PFOA, perfluorooctanoic acid], in data set [4], the “OAT4 substrate classification” value is given as “strong substrates”; the “Transporter Uptake Ratio OAT4” value was “+ (denoted with a “+” to denote a threshold of ≥ 2-fold has been met and considered a substrate for the transporter)”; the “Effect of probenecid co-treatment on hOAT4-mediated uptake” value is given as “effectively inhibited”. Besides, the “hOAT4 uptake ratio, fold” value in data set [4] (1 μM PFAS screen) is listed as “greater than 2 fold”. The half-inhibitory concentration (IC50) in data set [2] was 8.9 µM. Further, the IC50 in data set [3] lay within 51.4 to 166 µM. Besides, in data set [8], the “Ph 7.4 A-B Papp” value is 1.46 ×10⁻⁶ cm/s. Also, the “hOAT1 uptake ratio, % higher than controls” value in data set [6] is 5–60%. Besides, in data set [7], the “hOAT3 uptake ratio, fold higher than mock transfected controls” value is 2.5–12 fold; the “Transporter Uptake Ratio OAT3” value is “+ (denoted with a “+” to denote a threshold of ≥ 2-fold has been met and considered a substrate for the transporter)”; the “hOAT3-mediated uptake, fold” value is 2.5–15 fold; the “Effect of probenecid cotreatment on hOAT3-mediated uptake” value is recorded as “markedly inhibited”.
For `NS(=O)(=O)C(F)(F)C(F)(F)C(F)(F)C(F)(F)C(F)(F)C(F)(F)C(F)(F)C(F)(F)F` [PFOSA, perfluorooctanesulfonamide], the “hOCT2 uptake ratio, % higher than mock transfectant controls” value in [1] is on record as ~ 10%. Besides, the half-maximal inhibitory concentration (IC50) in [9] is 245 µM; in [2] it was 21.1 to 123 µM. In addition, the “neutral fraction at pH 7.4” value in data set [10] is on record as ~ 6%. For the same compound, the “Papp at pH 6.5 relative to pH 7.4, times higher” value in data set [11] is on record as ~ 2 times. In addition, in data set [11] (dog, 90 min, 2 μM, pH 7.4), the “Ph 7.4 A-B Papp” value stood at 41.4 ×10⁻⁶ cm/s. Moreover, the apparent permeability from apical to basolateral (Papp A→B) (as a rule, how fast a substance crosses the layer from the apical side) at 90 min, 2 μM in data set [12] came out at 41.4 ×10⁻⁶ cm/s.

Values taken from PMC11774580 (Chemosphere, 2024).
